Experiments:
[1] = biological target: PD-1/PD-L1 (Homo sapiens, UniProt Q9NZQ7); assay: PD-1/PD-L1 biochemical protein-protein interaction assay (ALPHA); assay type: binding; conditions: 0.3 nM His tagged PD-L1, 2.5 nM biotinylated Fc-PD-1, 60 minutes at 25° C., read-out: IC50 PD-L1-PD-1 Alpha IC50-mono PD-L1-fcP-D1
In short: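 Extracellular-domain binding of His-tagged PD-L1 (0.3 nM final) to biotinylated Fc-PD-1 (2.5 nM final) was measured by ALPHA in 25 mM Hepes pH 7.4, 150 mM NaCl, 3.4 mM EDTA, 0.005% Tween 20, 0.01% BSA. After 60 min at 25° C, anti-His acceptor and streptavidin donor beads were added; IC50 from four-parameter fits.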

[2] = biological target: T1, interaction between the recombinant extracellular domain (ECD) of PD-1 and native cell-bound PD-L1 (Homo sapiens, UniProt Q9NZQ7); assay: CHO/PD-L1 cell capture assay; assay type: cell-based; conditions: CHO cells overexpressing PD-L1, pre-incubated 1 hr with compound, captured on biotinylated Fc-PD-1 coated plates, 75 min at room temperature
T1 construct: expressed in transfected cells
In short: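 CHO cells stably overexpressing PD-L1 were pre-incubated 1 hr with compound, then captured 75 min at room temperature on biotinylated Fc-PD-1 ECD bound to streptavidin plates. After glutaraldehyde/Draq5 fixation-staining, captured cells were counted by high-content microscopy; EC50 from four-parameter dose-response fits.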

[3] = biological target: T2, PD-1/PD-L1 interaction (Homo sapiens, UniProt Q9NZQ7); assay: PD-1/PD-L1 NFAT reporter co-culture assay; assay type: cell-based; conditions: Jurkat PD-1 NFAT-luciferase cells co-cultured with aAPC-PD-L1 CHO cells, 6 hrs at 37° C.; read-out: EC50 NFAT Luciferase
T2 construct: expressed in transfected cells; host or cells: CHO cells (aAPC-PD-L1) co-cultured with Jurkat cells overexpressing PD-1 and an NFAT-luciferase reporter
In short: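 First, CHO cells displaying anti-CD3 antibody and PD-L1 were plated overnight. Next, compound-treated PD-1 Jurkat NFAT-luciferase reporter cells in 2% FBS RPMI were added for 6 h at 37 °C. Finally, ONE-Glo luminescence was read and EC50 values fitted with a four-parameter equation.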

[4] = biological target: T3, PD-L1 (Homo sapiens, UniProt Q9NZQ7); assay: PD-L1/PD-L1 dimerization biochemical protein-protein interaction assay (ALPHA); assay type: binding; conditions: compound-induced PD-L1 dimerization, head prints '1 nM' (0.5 nM His-tagged PD-L1 and 0.5 nM FLAG-tagged PD-L1), read-out: AC50 PDL1 Dimer Alpha 1 nM
T3 construct: determine if they can specifically dimerize the extracellular domains of PD-L1
In short: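 ALPHA proximity assay of compound-induced dimerization of 0.5 nM His-tagged and 0.5 nM FLAG-tagged PD-L1 extracellular domains in Hepes pH 7.4 buffer, 2 h at 25 °C. Anti-His acceptor then anti-FLAG donor beads, 60 min each; AC50 from four-parameter fit.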

T3 sequence (Q9NZQ7 19-238 limits assumed): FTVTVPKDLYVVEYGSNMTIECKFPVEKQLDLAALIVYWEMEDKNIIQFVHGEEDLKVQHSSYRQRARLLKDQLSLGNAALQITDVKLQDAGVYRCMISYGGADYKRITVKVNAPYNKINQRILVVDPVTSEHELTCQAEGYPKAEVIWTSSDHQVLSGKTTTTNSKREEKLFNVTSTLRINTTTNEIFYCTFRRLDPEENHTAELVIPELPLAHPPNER
T3 sequence (Q9NZQ7 19-238 limits assumed): as above
Chain of PD-1/PD-L1 (Q9NZQ7 19-238 limits assumed): as above
T1 sequence (Q9NZQ7 19-290): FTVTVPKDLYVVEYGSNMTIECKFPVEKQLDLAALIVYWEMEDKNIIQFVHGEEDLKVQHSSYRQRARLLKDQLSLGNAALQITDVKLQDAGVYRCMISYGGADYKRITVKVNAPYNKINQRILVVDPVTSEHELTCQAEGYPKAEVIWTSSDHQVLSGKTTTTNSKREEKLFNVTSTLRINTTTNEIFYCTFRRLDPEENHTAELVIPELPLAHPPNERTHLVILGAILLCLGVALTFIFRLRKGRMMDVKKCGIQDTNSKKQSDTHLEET
T2 sequence (Q9NZQ7 19-290): as above

| Structure (SMILES) | IC50 [1] | EC50 [2] | EC50 [3] | AC50 [4] |
| --- | --- | --- | --- | --- |
| N#Cc1cncc(COc2nc(O[C@H]3CCc4c(-c5cccc6c5CC[C@@H]6Oc5nc(OCc6cncc(C#N)c6)c(CNC[C@@H](O)CC(=O)O)cc5Br)cccc43)c(Br)cc2CNC[C@@H](O)CC(=O)O)c1 [Example 4, (3S,3′S)-4,4′-((((((1S,1′S)-2,2′,3,3′-tetrahydro-1H,1′H-[4,4′-biindene]-1,1′-diyl)bis(oxy))bis(5-bromo-2-((5-cyanopyridin-3-yl)methoxy)pyridine-6,3-diyl))bis(methylene))bis(azanediyl))bis(3-hydroxybutanoic acid)] | 0.0001 µM | 0.0156 µM | 0.017 µM | 0.0672 µM |
| COc1nc(O[C@H]2CCc3c(-c4cccc5c4CC[C@@H]5Oc4nc(OC)c(CNC[C@@H](O)CC(=O)O)cc4Cl)cccc32)c(Cl)cc1CNC[C@@H](O)CC(=O)O [Example 6, (3S,3′S)-4,4′-((((((1S,1′S)-2,2′,3,3′-tetrahydro-1H,1′H-[4,4′-biindene]-1,1′-diyl)bis(oxy))bis(5-chloro-2-methoxypyridine-6,3-diyl))bis(methylene))bis(azanediyl))bis(3-hydroxybutanoic acid)] | 0.0001 µM | 0.0638 µM | 0.148 µM | 0.0909 µM |
| COc1nc(O[C@H]2CCc3c(-c4cccc5c4CC[C@@H]5Oc4nc(OC)c(CNC[C@@H](O)CC(=O)O)cc4Br)cccc32)c(Br)cc1CNC[C@@H](O)CC(=O)O [Example 7, (3S,3′S)-4,4′-((((((1S,1′S)-2,2′,3,3′-tetrahydro-1H,1′H-[4,4′-biindene]-1,1′-diyl)bis(oxy))bis(5-bromo-2-methoxypyridine-6,3-diyl))bis(methylene))bis(azanediyl))bis(3-hydroxybutanoic acid)] | 0.0001 µM | 0.056 µM | 0.089 µM | 0.14 µM |
| Cc1c(COc2cc(OCc3cncc(C#N)c3)c(CNC[C@@H](O)CC(=O)O)cc2Cl)cccc1-c1cccc(-c2ccc(OCCNC[C@@H](O)CC(=O)O)cc2)c1C [Example 16, (S)-4-((4-((4″-(2-(((S)-3-carboxy-2-hydroxypropyl)amino)ethoxy)-2,2′-dimethyl-[1,1′:3′,1″-terphenyl]-3-yl)methoxy)-5-chloro-2-((5-cyanopyridin-3-yl)methoxy)benzyl)amino)-3-hydroxybutanoic acid] | 0.0001 µM | 0.006 µM | 0.088 µM | 0.1 µM |
| Cc1c(COc2nc(OCCc3cncnc3)c(CNC[C@@H](O)CC(=O)O)cc2Br)cccc1-c1cccc(COc2nc(OCCc3cncnc3)c(CNC[C@@H](O)CC(=O)O)cc2Br)c1C [Example 127, (3S,3′S)-4,4′-((((((2,2′-dimethyl-[1,1′-biphenyl]-3,3′-diyl)bis(methylene))bis(oxy))bis(5-bromo-2-(2-(pyrimidin-5-yl)ethoxy)pyridine-6,3-diyl))bis(methylene))bis(azanediyl))bis(3-hydroxybutanoic acid)] | 0.0002 µM | 0.0686 µM | 0.193 µM | 0.166 µM |
| Cc1c(COc2nc(OCC3COC3)c(CNC[C@@H](O)CC(=O)O)cc2Br)cccc1-c1cccc(COc2nc(OCC3COC3)c(CNC[C@@H](O)CC(=O)O)cc2Br)c1C [Example 132, (3S,3′S)-4,4′-((((((2,2′-dimethyl-[1,1′-biphenyl]-3,3′-diyl)bis(methylene))bis(oxy))bis(5-bromo-2-(oxetan-3-ylmethoxy)pyridine-6,3-diyl))bis(methylene))bis(azanediyl))bis(3-hydroxybutanoic acid)] | 0.0003 µM | 0.194 µM | 0.391 µM | 0.279 µM |
| Cc1c(COc2nc(OCCC(N)=O)c(CNCC(=O)O)cc2Cl)cccc1-c1cccc(COc2nc(OCCC(N)=O)c(CNCC(=O)O)cc2Cl)c1C [Example 146, 2,2′-((((((2,2′-dimethyl-[1,1′-biphenyl]-3,3′-diyl)bis(methylene))bis(oxy))bis(2-(3-amino-3-oxopropoxy)-5-chloropyridine-6,3-diyl))bis(methylene))bis(azanediyl))diacetic acid] | – | 0.184 µM | 2.3 µM | 0.334 µM |
| COc1nc(OCc2cccc(-c3cccc(COc4nc(OC)c(CNCCC(=O)O)cc4Cl)c3C)c2C)c(Cl)cc1CNCCC(=O)O [Example 172, 3,3′-((((((2,2′-dimethyl-[1,1′-biphenyl]-3,3′-diyl)bis(methylene))bis(oxy))bis(5-chloro-2-methoxypyridine-6,3-diyl))bis(methylene))bis(azanediyl))dipropionic acid] | – | 0.0506 µM | 0.139 µM | ≥ 10 µM |
| COc1nc(OCc2cccc(-c3cccc(COc4nc(OC)c(CNCCCC(=O)O)cc4Cl)c3C)c2C)c(Cl)cc1CNCCCC(=O)O [Example 183, 4,4′-((((((2,2′-dimethyl-[1,1′-biphenyl]-3,3′-diyl)bis(methylene))bis(oxy))bis(5-chloro-2-methoxypyridine-6,3-diyl))bis(methylene))bis(azanediyl))dibutyric acid] | – | 0.0691 µM | 0.141 µM | 0.26 µM |
| COc1nc(OCc2cccc(-c3cccc(COc4nc(OC)c(CNC[C@H](O)CC(=O)O)cc4Br)c3Cl)c2Cl)ccc1CNC[C@H](O)CC(=O)O [Example 192, (R)-4-(((6-((3′-(((3-Bromo-5-((((R)-3-carboxy-2-hydroxypropyl)amino)methyl)-6-methoxypyridin-2-yl)oxy)methyl)-2,2′-dichloro-[1,1′-biphenyl]-3-yl)methoxy)-2-methoxypyridin-3-yl)methyl)amino)-3-hydroxybutanoic acid] | – | 0.0312 µM | 0.197 µM | 0.267 µM |
| Cc1c(COc2cc(OCc3cncc(C#N)c3)c(CNC[C@@H](O)CC(=O)O)cc2Cl)cccc1-c1cccc(-c2ccc3c(cnn3CCNC[C@@H](O)CC(=O)O)c2)c1C [Example 209, (S)-4-((4-((3′-(1-(2-(((S)-3-carboxy-2-hydroxypropyl)amino)ethyl)-1H-indazol-5-yl)-2,2′-dimethyl-[1,1′-biphenyl]-3-yl)methoxy)-5-chloro-2-((5-cyanopyridin-3-yl)methoxy)benzyl)amino)-3-hydroxybutanoic acid] | – | 0.0131 µM | 0.073 µM | 0.0705 µM |
| Cc1c(COc2cc(OCc3cncc(C#N)c3)c(CNC[C@@H](O)CC(=O)O)cc2Cl)cccc1-c1cccc(-c2ccc3sc(CNC[C@@H](O)CC(=O)O)cc3c2)c1C [Example 211] | – | 0.0456 µM | 0.304 µM | 0.0812 µM |
| COc1nc(OCc2cccc(-c3cccc(COc4nc(OC)c(CN5CCC[C@H]5C(=O)O)cc4Cl)c3C)c2C)c(Cl)cc1CN1CCC[C@H]1C(=O)O [Example 232, (2′S)-(((((2,2′-dimethyl-[1,1′-biphenyl]-3,3′-diyl)bis(methylene))bis(oxy))bis(5-chloro-2-methoxypyridine-6,3-diyl))bis(methylene))di-L-proline] | – | 0.142 µM | 0.331 µM | 0.314 µM |
| Cc1c(COc2cc(OCc3cncc(C#N)c3)c(CNC[C@@H](O)CC(=O)O)cc2Cl)cccc1-c1cccc(OCc2ccc(CNC[C@@H](O)CC(=O)O)cc2)c1C [Example 279, (S)-4-((4-(((3′-((4-((((S)-3-carboxy-2-hydroxypropyl)amino)methyl)-2-chloro-5-((5-cyanopyridin-3-yl)methoxy)phenoxy)methyl)-2,2′-dimethyl-[1,1′-biphenyl]-3-yl)oxy)methyl)benzyl)amino)-3-hydroxybutanoic acid] | – | 0.0277 µM | 0.26 µM | 0.109 µM |
| Cc1c(COc2cc(OCc3cncc(C#N)c3)c(CNC(CO)(CO)CO)cc2Cl)cccc1-c1cccc(COc2cc(OCc3cncc(C#N)c3)c(CNC(CO)(CO)CO)cc2Cl)c1C [Example 282, 5,5′-((((((2,2′-dimethyl-[1,1′-biphenyl]-3,3′-diyl)bis(methylene))bis(oxy))bis(4-chloro-6-(((1,3-dihydroxy-2-(hydroxymethyl)propan-2-yl)amino)methyl)-3,1-phenylene))bis(oxy))bis(methylene))dinicotinonitrile] | – | 0.254 µM | 0.463 µM | 0.327 µM |
